Data from PMC8551967 (Frontiers in Microbiology, 2021).
Non-standard residues stand in square brackets, D forms with d. Residues, ends and D or L forms follow the SMILES beside them. *: point of attachment. Leu(ol) = CC(C)C[C@H](N)CO; Octanoyl = CCCCCCCC(=O)*; Aib = CC(C)(N)C(=O)O

What was measured:
[1] = test system: Pyricularia oryzae (strains AP, Guy11, I203 and IT10); details: for inhibition of fungal growth compared to the untreated control: 96 h, 50 μM, pH 6.85
[2] = test system: Pyricularia oryzae IT10 strain on rice (cv. Vialone Nano); details: in vivo
[3] = test system: P. oryzae (IT10 strain) conidia; type: cell-based, Pyricularia oryzae
[4] = test system: Pyricularia oryzae IT10 strain on barley leaves (cv. Alora); details: in vivo
[5] = test system: P. oryzae Guy11 strain; type: cell-based, Pyricularia oryzae
[6] = test system: P. oryzae AP strain; type: cell-based, Pyricularia oryzae
[7] = test system: P. oryzae IT10 strain; type: cell-based, Pyricularia oryzae
[8] = test system: P. oryzae I203 strain; type: cell-based, Pyricularia oryzae
[9] = test system: P. oryzae conidia; type: cell-based, Pyricularia oryzae; details: pH 7

Compound | inhibition of fungal growth compared to the untreated control [1] | reduction in Disease Severity Index (DSI) [2] | morphology and germination of treated conidia [3] | reduction of blast lesion area in comparison with untreated barley leaves [4] | significance of lesion inhibition compared to the Control [4] | inhibition of fungal growth (in words) [1] | further results
CCCCCCCC(=O)NC(C)(C)C(=O)NCC(=O)N[C@@H](CC(C)C)C(=O)NC(C)(C)C(=O)N[C@@H](CCCCN)C(=O)N[C@@H](CCCCN)C(=O)N[C@@H](CC(C)C)C(=O)NC(C)(C)C(=O)NCC(=O)N[C@H](C(=O)N[C@H](CO)CC(C)C)[C@@H](C)CC [Pep 4] | more than 90% | 65-70% | important morphological changes | higher than 95% | Significant inhibition |  | 
nOct-Aib-Lys-Leu-Aib-Gly-Lys-Leu-Aib-Gly-Ile-Lol [Pep 7] |  | 65-70% |  | higher than 95% | Significant inhibition | relatively little or no inhibition against one or two strains | 
nOct-Aib—Lys-Lys-Leu-Aib-Gly-Ile-Leu-NH2 [Pep 4C2] |  | 65-70% |  | about 75% | Significant inhibition | relatively little or no inhibition against one or two strains | representative lesions on rice leaves (in words) [2]: reduced lesions
CCCCCCCC(=O)NC(C)(C)C(=O)N[C@@H](CCCCN)C(=O)N[C@@H](CC(C)C)C(=O)NC(C)(C)C(=O)N[C@@H](CCCCN)C(=O)NCC(=O)N[C@@H](CC(C)C)C(=O)NC(C)(C)C(=O)N[C@@H](CCCCN)C(=O)N[C@H](C(=O)N[C@H](CO)CC(C)C)[C@@H](C)CC [Pep 5] (Octanoyl-[Aib]KL[Aib]KGL[Aib]KI[Leu(ol)]) | more than 90% | 65-70% | important morphological changes | higher than 95% | Significant inhibition |  | representative lesions on rice leaves (in words) [2]: reduced lesions
nOct-Aib-Gly-Leu-Aib-Lys-Gly-Leu-Aib-Gly-Ile-Lol [Pep 3] |  | inefficacy |  |  |  |  | 
Palmitoyl-His-Ala-Ala-His-Lys(ε-Ser)-Gly-COOH [Pep 19] |  |  | germinated normally and did not show any morphological alteration |  |  | relatively little or no inhibition against one or two strains | inhibition of Guy11 strain (in words) [5]: did not inhibit; inhibition of AP strain (in words) [6]: did not inhibit; inhibition of IT10 strain (in words) [7]: partially inhibited; inhibition of I203 strain (in words) [8]: did not inhibit
CCCCCCCC(=O)NC(C)(C)C(=O)N[C@@H](CCCCN)C(=O)N[C@@H](CCCCN)C(=O)N[C@@H](CC(C)C)C(=O)NC(C)(C)C(=O)NCC(=O)N[C@H](C(=O)N[C@H](CO)CC(C)C)[C@@H](C)CC [Pep 4C] (Octanoyl-[Aib]KKL[Aib]GI[Leu(ol)]) | more than 90% |  | important morphological changes | ~70% | Significant inhibition |  | 
CCCCCCCC(=O)NC(C)(C)C(=O)N[C@@H](CCCCN)C(=O)N[C@@H](CC(C)C)C(=O)NC(C)(C)C(=O)NCC(=O)NCC(=O)N[C@@H](CC(C)C)C(=O)NC(C)(C)C(=O)NCC(=O)N[C@H](C(=O)N[C@@H](CC(C)C)C(N)=O)[C@@H](C)CC [Pep 2Rink] (Octanoyl-[Aib]KL[Aib]GGL[Aib]GIL-NH2) | more than 90% | 65-70% |  | about 92% | Significant inhibition |  | representative lesions on rice leaves (in words) [2]: reduced lesions; representative lesions on barley leaves (in words) [4]: Almost no lesions
H-FKR[Aib]KK[Aib]FKK[Aib]WNWK-NH2 [Pep 12] |  |  |  |  |  | relatively little or no inhibition against one or two strains | 
nOct-Aib-Gly-Leu-Aib-Gly-Lys-Leu-Aib-Gly-Ile-Lol [Pep 22] |  |  |  | ineffective |  | relatively little or no inhibition against one or two strains | 
nOct-Aib-Gly-Leu-Aib-Gly-Gly-Leu-Api-Gly-Ile-Lol [Pep 8Api] |  | 50-55% | important morphological changes | higher than 95% | Significant inhibition | relatively little or no inhibition against one or two strains | 
nOct-Aib-Gly-Leu-Aib-Lys-Aib-Leu-Aib-Gly-Ile-Lol [Pep 6] |  |  | germinated normally and did not show any morphological alteration |  |  |  | mycelium growth in the presence of the peptide versus untreated control [9]: grew better than the untreated control
nOct-Aib-Gly-Leu-Aib-Lys-Lys-Leu—Leu-NH2 [Pep 4C1] |  |  |  | ineffective |  | relatively little or no inhibition against one or two strains | 
nOct-Aib-Gly-Leu-Aib-Gly-Gly-Leu-Aib-Gly-Ile-Lol [Trichogin, Trichogin GA IV, reference compound] |  |  |  | ineffective |  |  | activity of trichogin against P. oryzae in vitro [1]: ineffective
CCCCCCCC(=O)NC(C)(C)C(=O)N[C@@H](CCCCN)C(=O)N[C@@H](CC(C)C)C(=O)NC(C)(C)C(=O)NCC(=O)NCC(=O)N[C@@H](CC(C)C)C(=O)NC(C)(C)C(=O)NCC(=O)N[C@H](C(=O)N[C@H](CO)CC(C)C)[C@@H](C)CC [Pep 2] (Octanoyl-[Aib]KL[Aib]GGL[Aib]GI[Leu(ol)]) | more than 90% |  | important morphological changes | ineffective |  |  | 
